{"source": "patent US12558342B2", "about": "“2-[2-({12,12-dimethyl-4-oxo-6-phenyl-3,11-dioxatricyclo[8.4.0.0,2,7]tetradeca-1,5,7,9-tetraen-8-yl}oxy)acetamido]benzamide and derivatives as inhibitor of clock:bmal1 interaction for the treatment of circadian rhythm diseases and disorders” (KOC UNIVERSITESI, priority 2019, dated 2026)", "key": {"[1]": {"test_system": "PER2, NPAS2, BMAL1 and CRY1", "assay": "Cytosol-nuclear fractionation of U2OS cells, other clock proteins", "assay_type": "cell-based, human", "conditions": "20 μM, two days", "protocol": "U2 OS cells treated with 20 μM CLK8 and 0.5% DMSO were used for fractionation analysis. The 4×10^5 was suspended in 500 ul cytosolic lysis buffer (10 mM HEPES pH 7,9, 10 mM KCl, 0.1 mM EDTA, 0.05% NP40 with protease inhibitors) and incubated on ice for 10 minutes. The lysate was centrifuged for 3 minutes at 3000 rpm at 4° C. The resulting supernatant was centrifuged one more time and supernatant collected as cytosolic fraction. On the other hand, the resulting pellet from lysate centrifugation was suspended in nuclear lysis buffer (20 mM HEPES pH 7.9, 0.4 M NaCl, 1 mM EDTA, 10% glycerol with protease inhibitors) and sonicated 2 times 10 seconds with 60% power. After centrifuge at 15 000 g for 5 minutes at 4° C., supernatant was collected as nuclear fraction. Collected fractions were used for Western Blot analysis. Fractionation efficiency was checked with Western Blot by using tubulin (Sigma T9026) as cytosolic marker and Histone-H3 (abcam ab1791) as nuclear marker."}, "Bmal1, Clock, and Cry1": {"test_system": "Bmal1, Clock, and Cry1", "assay": "In vivo study in mouse liver, qPCR", "conditions": "25 mg/kg i.p., 6 h", "protocol": "Male C57BL/6J mice, 8 weeks of age, weighing 18-24 g were treated with two different single doses of CLK8 (25 mg/kg n=5 per each dose) intraperitoneally. Control mice (n=3) were only treated with vehicle (DMSO:Cremophor EL: 0.9% NaCl; 2.5:15:82.5, v/v, i.p.). Water and food were provided ad libitum throughout the experiments. Six hours after injection, mice were sacrificed by cervical dislocation. Liver tissues were removed, frozen in liquid nitrogen and stored at −80° C. until further processing."}, "NAV2": {"target": "T1, NAV2 (Homo sapiens, UniProt Q8IVL1)", "T1 construct": "endogenous in cells; host or cells: HEK 293T", "T1 sequence (Q8IVL1 whole entry)": "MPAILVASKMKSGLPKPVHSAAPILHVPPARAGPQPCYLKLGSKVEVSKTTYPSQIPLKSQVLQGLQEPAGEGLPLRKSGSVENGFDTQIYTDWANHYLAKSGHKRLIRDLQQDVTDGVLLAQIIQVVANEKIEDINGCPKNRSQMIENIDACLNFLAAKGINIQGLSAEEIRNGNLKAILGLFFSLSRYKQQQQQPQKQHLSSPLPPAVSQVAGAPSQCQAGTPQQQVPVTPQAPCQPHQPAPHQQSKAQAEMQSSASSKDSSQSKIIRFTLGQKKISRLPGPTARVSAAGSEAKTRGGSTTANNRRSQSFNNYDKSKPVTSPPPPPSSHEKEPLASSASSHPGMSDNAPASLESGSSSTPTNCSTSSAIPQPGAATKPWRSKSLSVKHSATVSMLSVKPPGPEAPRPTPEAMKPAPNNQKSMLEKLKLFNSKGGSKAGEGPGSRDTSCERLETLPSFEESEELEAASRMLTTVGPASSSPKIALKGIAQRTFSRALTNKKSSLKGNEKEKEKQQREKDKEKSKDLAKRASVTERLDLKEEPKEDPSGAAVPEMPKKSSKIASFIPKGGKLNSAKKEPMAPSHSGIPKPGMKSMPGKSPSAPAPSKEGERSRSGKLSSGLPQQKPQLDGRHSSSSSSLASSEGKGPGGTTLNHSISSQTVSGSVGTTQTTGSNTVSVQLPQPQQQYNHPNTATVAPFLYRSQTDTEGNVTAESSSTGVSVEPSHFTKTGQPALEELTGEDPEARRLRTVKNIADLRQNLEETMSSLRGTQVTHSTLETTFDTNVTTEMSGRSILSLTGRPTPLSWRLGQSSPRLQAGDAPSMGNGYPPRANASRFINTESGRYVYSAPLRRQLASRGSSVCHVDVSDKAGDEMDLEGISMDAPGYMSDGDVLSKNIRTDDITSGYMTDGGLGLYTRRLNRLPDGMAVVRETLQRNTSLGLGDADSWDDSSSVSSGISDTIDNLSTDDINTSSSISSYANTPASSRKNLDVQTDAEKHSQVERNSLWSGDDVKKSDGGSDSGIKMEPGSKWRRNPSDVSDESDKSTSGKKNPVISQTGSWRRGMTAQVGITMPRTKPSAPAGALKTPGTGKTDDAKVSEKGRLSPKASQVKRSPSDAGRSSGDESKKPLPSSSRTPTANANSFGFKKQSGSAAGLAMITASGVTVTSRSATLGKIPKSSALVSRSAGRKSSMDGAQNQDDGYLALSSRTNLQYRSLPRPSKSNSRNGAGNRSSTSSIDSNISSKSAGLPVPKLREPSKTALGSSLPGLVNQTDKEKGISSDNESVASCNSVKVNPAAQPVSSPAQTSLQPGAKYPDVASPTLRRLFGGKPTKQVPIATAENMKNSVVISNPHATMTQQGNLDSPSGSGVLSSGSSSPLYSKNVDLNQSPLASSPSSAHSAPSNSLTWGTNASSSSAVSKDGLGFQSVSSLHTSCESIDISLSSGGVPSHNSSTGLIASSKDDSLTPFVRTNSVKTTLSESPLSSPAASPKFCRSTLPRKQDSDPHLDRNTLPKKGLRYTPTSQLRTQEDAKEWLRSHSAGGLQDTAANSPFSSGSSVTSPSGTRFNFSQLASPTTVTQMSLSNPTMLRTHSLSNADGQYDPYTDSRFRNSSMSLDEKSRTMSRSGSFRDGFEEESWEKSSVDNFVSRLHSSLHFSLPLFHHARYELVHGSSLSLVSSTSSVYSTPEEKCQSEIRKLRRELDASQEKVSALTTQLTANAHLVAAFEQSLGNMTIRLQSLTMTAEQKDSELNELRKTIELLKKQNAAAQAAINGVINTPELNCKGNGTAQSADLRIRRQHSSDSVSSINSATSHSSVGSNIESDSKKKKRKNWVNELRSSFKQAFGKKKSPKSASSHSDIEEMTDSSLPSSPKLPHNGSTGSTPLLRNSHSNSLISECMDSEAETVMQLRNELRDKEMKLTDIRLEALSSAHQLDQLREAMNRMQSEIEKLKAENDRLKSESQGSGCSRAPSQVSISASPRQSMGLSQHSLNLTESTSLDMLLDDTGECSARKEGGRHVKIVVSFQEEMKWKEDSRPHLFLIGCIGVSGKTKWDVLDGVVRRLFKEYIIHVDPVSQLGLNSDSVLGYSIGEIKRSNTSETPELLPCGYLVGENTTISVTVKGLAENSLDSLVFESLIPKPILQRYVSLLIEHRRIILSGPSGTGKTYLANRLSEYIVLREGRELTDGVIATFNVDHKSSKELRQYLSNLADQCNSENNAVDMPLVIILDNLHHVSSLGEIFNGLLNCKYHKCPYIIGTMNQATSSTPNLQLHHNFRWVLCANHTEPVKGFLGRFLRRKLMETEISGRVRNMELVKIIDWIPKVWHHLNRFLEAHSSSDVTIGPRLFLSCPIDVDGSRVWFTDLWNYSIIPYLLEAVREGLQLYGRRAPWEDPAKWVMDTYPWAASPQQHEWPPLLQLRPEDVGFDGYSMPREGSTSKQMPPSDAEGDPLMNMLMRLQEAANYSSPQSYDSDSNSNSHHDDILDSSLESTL", "assay": "LC-MS/MS of pull-down precipitates, NAV2", "assay_type": "binding", "conditions": "Competitor 0 μM", "protocol": "HEK293T cells were transiently transfected with tag-free hsClock and mBmal1. After 48 hours of transfection, cells were harvested and whole cell lysate was prepared with ice-cold lysis buffer (50 mM Tris-HCl pH 7.4, 2 mM EDTA, 1 mM MgCl2, 0.2% NP-40, 1 mM sodium orthovanadate, 1 mM sodium fluoride and protease inhibitor cocktail) followed by centrifugation at 7000×g at 4° C. for 10 minutes. Lysate was diluted with ice-cold 2× binding buffer (100 mM Tris-HCl pH 7.4, 300 mM NaCl, 0.2% NP-40, 2 mM sodium orthovanadate, 2 mM sodium fluoride, and protease inhibitor cocktail) 27. The lysate was divided into three fractions to be treated with either DMSO, or 20 μM of bitoinylated-CLK8 (bait) with or without 200 μM CLK8 (competitor). […]\nThe next step was to check for off-targets of CLK8. […] Since the amount of precipitated endogenous CLOCK was insufficient to be detected in LC-MS/MS, whole cell lysate of HEK 293T cells overexpressing CLOCK and BMAL1 were used for LC-MS/MS. We determined proteins that potentially bind to CLK8 by utilizing a minimum threshold for peptide spectrum matches and coverage equal to those of the main target, CLOCK. We also excluded proteins that have been detected in negative controls of the CRAPome database (32), assuming them as abundant sticky proteins. […] BMAL1 was detected in lower amounts when a competitor was present. […]"}}, "data": [{"smiles": "CC1(C)CCc2c(cc(OCC(=O)Nc3ccccc3C(N)=O)c3c(-c4ccccc4)cc(=O)oc23)O1", "note": "[CLK8, 2-[2-({12,12-dimethyl-4-oxo-6-phenyl-3,11-dioxatricyclo [8.4.0.0,2,7]tetradeca-1,5,7,9-tetraen-8-yl}oxy)acetamido] benzamide]", "values": [{"measurement": "level of PER2, NPAS2, BMAL1 and CRY1", "setting": "[1]", "result": "comparable to the control samples"}, {"measurement": "Cry1 gene's transcriptional level (liver)", "setting": "Bmal1, Clock, and Cry1", "result": "significantly changed"}, {"measurement": "Peptide spectrum matches, NAV2", "setting": "NAV2", "result": 263}]}]}
